Measured values published in patent publication US10851402B2, “Method for in vitro detection and monitoring of a disease by measuring disease-associated protease activity in extracellular vesicles” (Friedrich-Alexander-Universitaet Erlangen-Nuernberg, priority 2013, dated 2020).

Key:
resting PBMC = assay: TNFα secretion of resting PBMC after incubation with EV; assay type: cell-based; details: EV-producing cells incubated with the inhibitor; EV incubated with resting PBMC (6 hours)
Experimental: PBMC stimulation with EV and measurement of Cytokine Secretion. PBMC ([…]) were added to each well of a 96-well-U-bottom plate in a total volume of 200 μl (RPMI). 10 μl of exosome preparation from transfected cells (corresponding to 2×10^6 cells or one 10 cm dish) were added per well and […]. When indicated 10 μl PHA (positive control), 50 μM TAPI-1 (Peptides International), or 10 μM U0126 (MAPK-Inhibitor, Promega) were used. Cytokines in the supernatant (200 μl) were measured via the CBA (Cytometric Bead Array) Human Soluble Protein Flex Set System (BD Biosciences).
For confirmation we incubated EV with resting PBMC (6 hours) and measured TNFα release.

TACE = target: T1, TACE (Homo sapiens, UniProt P78536); assay: GFP-proTNF-RFP cleavage and endogenous TACE activity in Nef/mNAKC transfected 293T cells; assay type: cell-based; details: exposure of cultured 293T cells to TAPI
T1 construct: endogenous in cells; host or cells: 293T cells transfected with Nef/mNAKC (TACE itself not transfected)
Experimental: Transfections into 293T cells and protein assays. Transient transfections into 293T cells as well as immunoprecipitations and immunoblots were performed as described previously (Baur et al., 1997; Witte et al., 2004; Wolf et al., 2008). In general 20 μg of cellular protein lysate and 10 μg of EV lysate were loaded per lane. The latter corresponded to the secretion from 2-4 mio 293T cells within 48 h. Endogenous TACE activity was measured using SensoLyte®520 TACE (α-Secretase) Activity Assay Kit from AnaSpec, according to the manufacturer's procedures. Cell lysates were generated from 293T cells 24 h after tranfection of Nef/mNAKC. […]
While TACE seemed to be activated by Nef/mNAKC, it was not clear whether and where the protease was functionally active. […] We constructed a GFP-proTNF-RFP fusion protein (G-proTNF-R; FIG. 5A), expecting that the full-length protein would give a yellow signal, which upon TACE-mediated cleavage would mature into prodomain-associated green (GFP) and TNFα-associated red (RFP) fluorescence. […]
In 293T cells the transfected G-proTNF-R construct gave a double positive (GFP/RFP) signal in FACS and a yellow staining in confocal images (FIGS. 5B and E). […] In addition, we measured an increased activity of endogenous TACE in Nef/mNAKC transfected 293T cells using a commercial, substrate-based activity assay (FIG. 20B). […]

T1 sequence (P78536 215-824): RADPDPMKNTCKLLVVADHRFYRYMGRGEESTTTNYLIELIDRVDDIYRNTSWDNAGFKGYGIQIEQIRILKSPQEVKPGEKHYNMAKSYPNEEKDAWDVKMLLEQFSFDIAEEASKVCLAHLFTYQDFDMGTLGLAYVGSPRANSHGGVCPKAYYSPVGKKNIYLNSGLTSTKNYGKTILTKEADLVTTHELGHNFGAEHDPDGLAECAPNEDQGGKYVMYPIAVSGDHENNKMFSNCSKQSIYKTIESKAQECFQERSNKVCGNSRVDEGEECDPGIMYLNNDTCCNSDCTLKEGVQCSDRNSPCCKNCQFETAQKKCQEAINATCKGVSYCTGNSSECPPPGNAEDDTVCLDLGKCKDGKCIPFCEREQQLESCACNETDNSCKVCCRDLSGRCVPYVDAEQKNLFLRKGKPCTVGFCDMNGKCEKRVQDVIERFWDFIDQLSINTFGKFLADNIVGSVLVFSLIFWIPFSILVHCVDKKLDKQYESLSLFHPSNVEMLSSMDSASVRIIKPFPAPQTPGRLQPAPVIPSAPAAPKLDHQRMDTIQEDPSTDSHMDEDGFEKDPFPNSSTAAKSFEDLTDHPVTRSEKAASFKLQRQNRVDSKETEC

effect of Nef/mNAKC and TACE on G-proTNF-R cleavage and endogenous TACE activity (TACE) | Compound | TNFα release (resting PBMC)
– | Oc1ccc2ccccc2c1SSc1c(O)ccc2ccccc12 [IPA-3] | significantly reduced
reversed | CC(C)C[C@H](CC(=O)NO)C(=O)N[C@@H](Cc1ccc2ccccc2c1)C(=O)N[C@@H](C)C(=O)NCCN [TAPI] | significantly reduced
– | N#CC(=C(/N)Sc1ccccc1N)/C(C#N)=C(\N)Sc1ccccc1N [U0126] | significantly reduced
